Each structure is given as a SMILES string. Positions of bridges follow the written chain, without caps; N, C: chain ends. Non-standard residues stand in square brackets, D forms with d. Residues, ends and D or L forms follow the SMILES beside them. ξ: configuration not given here. *: point of attachment. Phe(4-COOH) = N[C@@H](Cc1ccc(C(=O)O)cc1)C(=O)O; Phe(2,4-F2) = N[C@@H](Cc1ccc(F)cc1F)C(=O)O; Phe(3-Br) = N[C@@H](Cc1cccc(Br)c1)C(=O)O; Phe(3-Me) = Cc1cccc(C[C@H](N)C(=O)O)c1; 2Nal = N[C@@H](Cc1ccc2ccccc2c1)C(=O)O; Gly(cPent) = N[C@H](C(=O)O)C1CCCC1; Tic = O=C(O)[C@@H]1Cc2ccccc2CN1; Aad = N[C@@H](CCCC(=O)O)C(=O)O; Cit = NC(=O)NCCC[C@H](N)C(=O)O; Gly(cPr) = N[C@H](C(=O)O)C1CC1; Ahp(2) = CCCCC[C@H](N)C(=O)O; NMeNle = CCCC[C@H](NC)C(=O)O; Tle = CC(C)(C)[C@H](N)C(=O)O; Pip = O=C(O)[C@@H]1CCCCN1; Carboxymethyl = O=C(O)C*; NHexGly = CCCCCCNCC(=O)O; NMeA = CN[C@@H](C)C(=O)O; Nle = CCCC[C@H](N)C(=O)O; ξS = NC(CO)C(=O)O

This assay concerns the target T1, mouse VISTA (mVISTA) (Mus musculus, UniProt Q9D659).
T1 construct: expressed in transfected cells; host or cells: Human embryonic kidney 293T cells
T1 sequence (Q9D659 33-308): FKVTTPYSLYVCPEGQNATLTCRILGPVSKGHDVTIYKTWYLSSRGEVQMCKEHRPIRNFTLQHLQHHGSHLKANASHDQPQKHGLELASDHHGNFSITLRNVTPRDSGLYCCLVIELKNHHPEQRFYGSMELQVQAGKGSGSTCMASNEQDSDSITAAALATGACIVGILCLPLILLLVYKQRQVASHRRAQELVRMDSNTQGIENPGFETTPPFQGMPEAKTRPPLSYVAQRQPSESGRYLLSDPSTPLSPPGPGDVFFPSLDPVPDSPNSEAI
Kind of assay: Cell-Based Binding High-Content Assay For mVISTA (HC CBA mVISTA). The following applies: read-out: HC CBA mVISTA IC50. The essentials:
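293T cells expressing mouse VISTA, with compounds added either after seeding ("no wash") or before seeding and then washed out after 1 h. Biotinylated peptide 2 nM for 30 min at room temperature, then detection with Alexa 647–streptavidin. After fixation with Hoechst stain, plates were high-content imaged; IC50 from four-parameter logistic fit.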
For the molecule `CCCCCCN1CC(=O)N[C@@H](Cc2ccc(O)cc2)C(=O)N[C@@H](CCCC)C(=O)N[C@@H](CC(N)=O)C(=O)N[C@@H](CCCNC(=N)N)C(=O)N(C)[C@@H](CCCC)C(=O)N[C@@H](CCCCC)C(=O)N(C)[C@@H](C)C(=O)N[C@@H](C(C)C)C(=O)N[C@@H](CO)C(=O)N[C@H](C(=O)NCC(N)=O)CSCC(=O)N[C@@H](Cc2ccccc2)C(=O)N[C@@H](Cc2c[nH]c3ccccc23)C(=O)N[C@@H](CC(=O)O)C1=O` [compound 1143] ({CH2CO}-FWD[NHexGly]Y[Nle]NR[NMeNle][Ahp(2)][NMeA]VSCG-NH2; thioether N-14), the IC50 is 17.6 nM. Under `CCCCCCN1CC(=O)N[C@@H](Cc2ccc(O)cc2)C(=O)N[C@@H](CCCC)C(=O)N[C@@H](CC(N)=O)C(=O)N[C@@H](CCCNC(N)=O)C(=O)N(C)[C@@H](CCCC)C(=O)N[C@@H](CCCCC)C(=O)N(C)[C@@H](C)C(=O)N[C@@H](C(C)C)C(=O)N[C@@H](CO)C(=O)N[C@H](C(=O)NCC(N)=O)CSCC(=O)N[C@@H](Cc2ccccc2)C(=O)N[C@@H](Cc2c[nH]c3ccccc23)C(=O)N[C@@H](CC(=O)O)C1=O` [compound 1144] ({CH2CO}-FWD[NHexGly]Y[Nle]N[Cit][NMeNle][Ahp(2)][NMeA]VSCG-NH2; thioether N-14) stands 15.8 nM. The result for `CCCCCCN1CC(=O)N[C@@H](Cc2ccc(O)cc2)C(=O)N[C@@H](CCCC)C(=O)N[C@@H](CC(N)=O)C(=O)N[C@@H](CCCNC(=N)N)C(=O)N(C)[C@@H](CCCC)C(=O)N[C@@H](CCCCC)C(=O)N2CCCC[C@H]2C(=O)N[C@@H](C(C)C)C(=O)N[C@@H](CO)C(=O)N[C@H](C(=O)NCC(N)=O)CSCC(=O)N[C@@H](Cc2ccccc2)C(=O)N[C@@H](Cc2c[nH]c3ccccc23)C(=O)N[C@@H](CC(=O)O)C1=O` [compound 1145] ({CH2CO}-FWD[NHexGly]Y[Nle]NR[NMeNle][Ahp(2)][Pip]VSCG-NH2; thioether N-14) reads 28.6 nM. Under `CCCCCCN1CC(=O)N[C@@H](Cc2ccc(O)cc2)C(=O)N[C@@H](CCCC)C(=O)N[C@@H](CC(N)=O)C(=O)N[C@@H](CCCNC(N)=O)C(=O)N(C)[C@@H](CCCC)C(=O)N[C@@H](CCCCC)C(=O)N2CCCC[C@H]2C(=O)N[C@@H](C(C)C)C(=O)N[C@@H](CO)C(=O)N[C@H](C(=O)NCC(N)=O)CSCC(=O)N[C@@H](Cc2ccccc2)C(=O)N[C@@H](Cc2c[nH]c3ccccc23)C(=O)N[C@@H](CC(=O)O)C1=O` [compound 1146] ({CH2CO}-FWD[NHexGly]Y[Nle]N[Cit][NMeNle][Ahp(2)][Pip]VSCG-NH2; thioether N-14) stands 21.7 nM; under `CCCCCCN1CC(=O)N[C@@H](Cc2ccc(O)cc2)C(=O)N[C@@H](CCCCC)C(=O)NCC(=O)N[C@@H](CCCNC(=N)N)C(=O)N[C@@H](CC(C)C)C(=O)N[C@@H](CCCCC)C(=O)N2CCCC[C@H]2C(=O)N[C@@H](C(C)C)C(=O)N[C@@H](CO)C(=O)N[C@H](C(=O)NCC(N)=O)CSCC(=O)N[C@@H](Cc2ccccc2)C(=O)N[C@@H](Cc2ccc(O)cc2)C(=O)N[C@@H](CC(=O)O)C1=O` [compound 1155] ({CH2CO}-FYD[NHexGly]Y[Ahp(2)]GRL[Ahp(2)][Pip]VSCG-NH2; thioether N-14), 24 nM; under `CCCCCCN1CC(=O)N[C@@H](Cc2ccc(O)cc2)C(=O)N[C@@H](CC(C)C)C(=O)NCC(=O)N[C@@H](CCCNC(=N)N)C(=O)N2Cc3ccccc3C[C@H]2C(=O)N[C@@H](CCCCC)C(=O)N2CCC[C@H]2C(=O)N[C@@H](C(C)C)C(=O)N[C@@H](CO)C(=O)N[C@H](C(=O)NCC(N)=O)CSCC(=O)N[C@@H](Cc2ccccc2)C(=O)N[C@@H](Cc2ccc(O)cc2)C(=O)N[C@@H](CC(=O)O)C1=O` [compound 1158] ({CH2CO}-FYD[NHexGly]YLGR[Tic][Ahp(2)]PVSCG-NH2; thioether N-14), 11.1 nM. For `CCCCCCN1CC(=O)N[C@@H](Cc2ccc(O)cc2)C(=O)N[C@@H](Cc2ccc(C(=O)O)cc2)C(=O)N[C@@H](CC(N)=O)C(=O)N[C@@H](CCCNC(=N)N)C(=O)N(C)[C@@H](CCCC)C(=O)N[C@@H](CCCCC)C(=O)N2CCC[C@H]2C(=O)N[C@@H](C(C)(C)C)C(=O)N[C@@H](CC(=O)O)C(=O)N[C@H](C(N)=O)CSCC(=O)N[C@@H](Cc2ccccc2)C(=O)N[C@@H](Cc2c[nH]c3ccccc23)C(=O)N[C@@H](CC(=O)O)C1=O` [compound 1167] ({CH2CO}-FWD[NHexGly]Y[Phe(4-COOH)]NR[NMeNle][Ahp(2)]P[Tle]DC-NH2; thioether N-14), the IC50 came out at 38.8 nM. The result for `CCCCCCN1CC(=O)N[C@@H](Cc2ccc(O)cc2)C(=O)N[C@@H](Cc2ccc(OCC(=O)O)cc2)C(=O)N[C@@H](CC(N)=O)C(=O)N[C@@H](CCCNC(=N)N)C(=O)N(C)[C@@H](CCCC)C(=O)N[C@@H](CCCCC)C(=O)N2CCC[C@H]2C(=O)N[C@@H](C(C)(C)C)C(=O)N[C@@H](CC(=O)O)C(=O)N[C@H](C(N)=O)CSCC(=O)N[C@@H](Cc2ccccc2)C(=O)N[C@@H](Cc2c[nH]c3ccccc23)C(=O)N[C@@H](CC(=O)O)C1=O` [compound 1168] ({CH2CO}-FWD[NHexGly]YY(Carboxymethyl)NR[NMeNle][Ahp(2)]P[Tle]DC-NH2; thioether N-14) reads 26.2 nM; that for `CCCCCCN1CC(=O)N[C@@H](Cc2ccc(O)cc2)C(=O)N[C@@H](CCCC(=O)O)C(=O)N[C@@H](CC(N)=O)C(=O)N[C@@H](CCCNC(=N)N)C(=O)N(C)[C@@H](CCCC)C(=O)N[C@@H](CCCCC)C(=O)N2CCC[C@H]2C(=O)N[C@@H](C(C)(C)C)C(=O)N[C@@H](CC(=O)O)C(=O)N[C@H](C(N)=O)CSCC(=O)N[C@@H](Cc2ccccc2)C(=O)N[C@@H](Cc2c[nH]c3ccccc23)C(=O)N[C@@H](CC(=O)O)C1=O` [compound 1169] ({CH2CO}-FWD[NHexGly]Y[Aad]NR[NMeNle][Ahp(2)]P[Tle]DC-NH2; thioether N-14), 38.4 nM. Take `CCCCCCN1CC(=O)N[C@@H](Cc2ccc(O)cc2)C(=O)N[C@@H](CCCC)C(=O)N[C@@H](CC(N)=O)C(=O)N[C@@H](CCCNC(=N)N)C(=O)N[C@@H](CC(C)C)C(=O)N[C@@H](C2CCCC2)C(=O)N2CCC[C@H]2C(=O)N[C@@H](C(C)C)C(=O)N[C@@H](CC(=O)O)C(=O)N[C@H](C(=O)NCC(=O)O)CSCC(=O)N[C@@H](Cc2ccc3ccccc3c2)C(=O)N[C@@H](Cc2c[nH]c3ccccc23)C(=O)N[C@@H](CC(=O)O)C1=O` [compound 1181] ({CH2CO}-[2Nal]WD[NHexGly]Y[Nle]NRL[Gly(cPent)]PVDCG-OH; thioether N-14): the IC50 was found to be 15.9 nM. The result for `CCCCCCN1CC(=O)N[C@@H](Cc2ccc(O)cc2)C(=O)N[C@@H](CCCC)C(=O)N[C@@H](CC(N)=O)C(=O)N[C@@H](CCCNC(=N)N)C(=O)N[C@@H](CC(C)C)C(=O)N[C@@H](C2CC2)C(=O)N2CCC[C@H]2C(=O)N[C@@H](C(C)C)C(=O)N[C@@H](CC(=O)O)C(=O)N[C@H](C(=O)NCC(=O)O)CSCC(=O)N[C@@H](Cc2ccc3ccccc3c2)C(=O)N[C@@H](Cc2c[nH]c3ccccc23)C(=O)N[C@@H](CC(=O)O)C1=O` [compound 1182] ({CH2CO}-[2Nal]WD[NHexGly]Y[Nle]NRL[Gly(cPr)]PVDCG-OH; thioether N-14) reads 23.6 nM; that for `CCCCCCN1CC(=O)N[C@@H](Cc2ccc(O)cc2)C(=O)N[C@@H](CCCC)C(=O)N[C@@H](CC(N)=O)C(=O)N[C@@H](CCCNC(=N)N)C(=O)N(C)[C@@H](CCCC)C(=O)N[C@@H](CCCCC)C(=O)N2CCC[C@H]2C(=O)N[C@@H](C(C)C)C(=O)N[C@@H](CC(=O)O)C(=O)N[C@H](C(=O)NCC(=O)O)CSCC(=O)N[C@@H](Cc2ccc3ccccc3c2)C(=O)N[C@@H](Cc2cccc(C)c2)C(=O)N[C@@H](CC(=O)O)C1=O` [compound 1200] ({CH2CO}-[2Nal][Phe(3-Me)]D[NHexGly]Y[Nle]NR[NMeNle][Ahp(2)]PVDCG-OH; thioether N-14), 44.8 nM. For the molecule `CCCCCCN1CC(=O)N[C@@H](Cc2ccc(O)cc2)C(=O)N[C@@H](CCCCC)C(=O)N[C@@H](CC(N)=O)C(=O)N[C@@H](CCCNC(=N)N)C(=O)N(C)[C@@H](CCCC)C(=O)N[C@@H](CCCCC)C(=O)N2CCC[C@H]2C(=O)N[C@@H](C(C)C)C(=O)N[C@@H](CC(=O)O)C(=O)N[C@H](C(=O)NCC(=O)O)CSCC(=O)N[C@@H](Cc2ccc3ccccc3c2)C(=O)N[C@@H](Cc2ccc(F)cc2F)C(=O)N[C@@H](CC(=O)O)C1=O` [compound 1201] ({CH2CO}-[2Nal][Phe(2,4-F2)]D[NHexGly]Y[Ahp(2)]NR[NMeNle][Ahp(2)]PVDCG-OH; thioether N-14), the concentration for half-maximal inhibition (IC50) amounted to 11.9 nM. On to `CCCCCCN1CC(=O)N[C@@H](Cc2ccc(O)cc2)C(=O)N[C@@H](CCCCC)C(=O)N[C@@H](CC(N)=O)C(=O)N[C@@H](CCCNC(=N)N)C(=O)N(C)[C@@H](CCCC)C(=O)N[C@@H](CCCCC)C(=O)N2CCC[C@H]2C(=O)N[C@@H](C(C)C)C(=O)N[C@@H](CC(=O)O)C(=O)N[C@H](C(=O)NC(CO)C(=O)O)CSCC(=O)N[C@@H](Cc2ccc3ccccc3c2)C(=O)N[C@@H](Cc2ccc(F)cc2F)C(=O)N[C@@H](CC(=O)O)C1=O` (stereo partly drawn) [compound 1202] ({CH2CO}-[2Nal][Phe(2,4-F2)]D[NHexGly]Y[Ahp(2)]NR[NMeNle][Ahp(2)]PVDC[ξS]-OH; thioether N-14), for which the IC50 worked out at 16.1 nM. The result for `CCCCCCN1CC(=O)N[C@@H](Cc2ccc(O)cc2)C(=O)N[C@@H](CC(C)C)C(=O)N[C@@H](CC(N)=O)C(=O)N[C@@H](CCCNC(=N)N)C(=O)N(C)[C@@H](CCCC)C(=O)N[C@@H](CCCCC)C(=O)N2CCC[C@H]2C(=O)N[C@@H](C(C)(C)C)C(=O)N[C@@H](CO)C(=O)N[C@H](C(=O)NCC(N)=O)CSCC(=O)N[C@@H](Cc2ccccc2)C(=O)N[C@@H](Cc2cccc(Br)c2)C(=O)N[C@@H](CC(=O)O)C1=O` [compound 1203] ({CH2CO}-F[Phe(3-Br)]D[NHexGly]YLNR[NMeNle][Ahp(2)]P[Tle]SCG-NH2; thioether N-14) reads 50.7 nM.

As usually defined, the IC50 is the point on the concentration scale where inhibition reaches its midpoint.
